# Tests used:
# Experiment in all cases: CellTiter-Glo cell viability assay
# Type in all cases: cell-based
# A204 = conditions: for IC50: Homo sapiens, A204, RHABDOMYOSARCOMA, Muscle, 72 hours
# Method: (§1) Cell viability in the presence of varying concentrations of the above listed compounds at different time points was used to assess cytotoxicity and the effect of the compounds on cell proliferation.
# (§2) Cell viability was measured by the CellTiter-Glo® cell viability assay from Promega (Madison, Wis.). The CellTiter-Glo® Luminescent Cell Viability Assay is a homogeneous method to determine the number of viable cells in culture based on quantitation of the ATP present, which signals the presence of metabolically active cells. Following treatment, CellTiter-Glo® is added to treatment wells and incubated at 37° C. luminescence values were measured at using a Molecular Devices Spectramax microplate reader
# (§3) Cells were grown to 70% confluency, trypsinized, counted, and seeded in 96 well flat-bottom plates at a final concentration of 2.5×10^3-5×10^3 cells/well (Day 0). Cells were allowed to incubate in growth media for 24 hours. Treatment with the test agents or standard agents began on Day 1 and continued for 72 hours. At the 72-hour timepoint, treatment containing media was removed. Viable cell numbers are quantified by the CellTiter-Glo® cell viability assay as described above. Results from these studies were used to calculate an IC50 value (concentration of drug that inhibits cell growth by 50 percent of control) for each compound.
# (§4) For single agent and combination studies, data from each experiment was collected and expressed as % Cell Growth using the following calculation: % Cell Growth=(ftest/fvehicle)×100
# (§5) Where test is the fluorescence of the tested sample, and fvehicle is the fluorescence of the vehicle in which the drug is dissolved. Dose response graphs and IC50 values were generated using Prism 6 software (GraphPad) using the following equation: Y=(Top-Bottom)/(1+10^((logIC^50^-X)-HillSlope))
# A427 = conditions: for IC50: Homo sapiens, A-427, A427, LUNG, Carcinoma, 72 hours
# Method: as §1, §2, §3, §4, §5
# ACHN = conditions: for IC50: Homo sapiens, ACHN, RENAL, RCC, 72 hours
# Method: as §1, §2, §3, §4, §5
# BxPC-3 = conditions: for IC50: Homo sapiens, BxPC-3, PANCREAS, Pancreatic, 72 hours
# Method: as §1, §2, §3, §4, §5
# Cal-27 = conditions: for IC50: Homo sapiens, Cal-27, H&N SQUAMOUS CELL, Tongue, 72 hours
# Method: as §1, §2, §3, §4, §5
# G401 = conditions: for IC50: Homo sapiens, G-401, G401, RENAL, Rhabdoid Tumor, 72 hours
# Method: as §1, §2, §3, §4, §5
# H23 = conditions: for IC50: Homo sapiens, NCI-H23, H23, LUNG, NSCLC, 72 hours
# Method: as §1, §2, §3, §4, §5
# H460 = conditions: for IC50: Homo sapiens, NCI-H460, H460, LUNG, NSCLC, 72 hours
# Method: as §1, §2, §3, §4, §5
# HT-29 = conditions: for IC50: Homo sapiens, HT-29, COLON, CRC, 72 hours
# Method: as §1, §2, §3, §4, §5
# Hs695T = conditions: for IC50: Homo sapiens, Hs 695T, Hs695T, MELANOMA, LN Met, 72 hours
# Method: as §1, §2, §3, §4, §5
# Huh-7-luc = conditions: for IC50: Huh-7-luc, LIVER, HCC, 72 hours
# Method: as §1, §2, §3, §4, §5
# Ishikawa = conditions: for IC50: Homo sapiens, Ishikawa, ENDOMETRIAL, 72 hours
# Method: as §1, §2, §3, §4, §5
# LK-2 = conditions: for IC50: Homo sapiens, LK-2, LUNG, Carcinoma, 72 hours
# Method: as §1, §2, §3, §4, §5
# MCF7 = conditions: for IC50: Homo sapiens, MCF7, BREAST, ER + BCC, 72 hours
# Method: as §1, §2, §3, §4, §5
# MFE296 = conditions: for IC50: Homo sapiens, MFE-296, MFE296, ENDOMETRIAL, Endometrial, 72 hours
# Method: as §1, §2, §3, §4, §5
# MSTO-211H = conditions: for IC50: Homo sapiens, MSTO-211H, LUNG, Mesothelioma, 72 hours
# Method: as §1, §2, §3, §4, §5
# MV411 = conditions: for IC50: Homo sapiens, MV4-11, MV411, HEMATOPIETIC, AML, 72 hours
# Method: as §1, §2, §3, §4, §5
# NCI-H209 = conditions: for IC50: Homo sapiens, NCI-H209, LUNG, Carcinoma, 72 hours
# Method: as §1, §2, §3, §4, §5
# OAW28 = conditions: for IC50: Homo sapiens, OAW-28, OAW28, OVARIAN, ovarian cystadenocarcinoma, 72 hours
# Method: as §1, §2, §3, §4, §5
# OCI-Ly3 = conditions: for IC50: Homo sapiens, OCI-Ly3, HEMATOPIETIC, DLBCL, 72 hours
# Method: as §1, §2, §3, §4, §5
# RKO = conditions: for IC50: Homo sapiens, RKO, COLON, CRC, 72 hours
# Method: as §1, §2, §3, §4, §5
# Raji = conditions: for IC50: Homo sapiens, Raji, HEMATOPIETIC, Burkitt’s, 72 hours
# Method: as §1, §2, §3, §4, §5
# SN12CCP = conditions: for IC50: SN12CCP, RENAL, RCC, 72 hours
# Method: as §1, §2, §3, §4, §5
# SNU-1 = conditions: for IC50: Homo sapiens, SNU1, SNU-1, GASTRIC, Carcinoma, 72 hours
# Method: as §1, §2, §3, §4, §5
# SiHa = conditions: for IC50: Homo sapiens, SiHa, CERVICAL-SQUAMOUS CELL, 72 hours
# Method: as §1, §2, §3, §4, §5
compound,measurement,setting,value
"CCC(C(=O)Nc1ncc(C(=O)NO)s1)c1ccc(OC)cc1 (racemic) [#1, N-hydroxy-2-(2-(4-methoxyphenyl)butanamido)thiazole-5-carboxamide]",IC50,A204,33 nM
same,IC50,A427,309 nM
same,IC50,ACHN,229 nM
same,IC50,BxPC-3,251 nM
same,IC50,Cal-27,215 nM
same,IC50,G401,91 nM
same,IC50,H23,76 nM
same,IC50,H460,79 nM
same,IC50,HT-29,136 nM
same,IC50,Hs695T,372 nM
same,IC50,Huh-7-luc,185 nM
same,IC50,Ishikawa,48 nM
same,IC50,LK-2,196 nM
same,IC50,MCF7,39 nM
same,IC50,MFE296,52 nM
same,IC50,MSTO-211H,128 nM
same,IC50,MV411,7 nM
same,IC50,NCI-H209,110 nM
same,IC50,OAW28,288 nM
same,IC50,OCI-Ly3,65 nM
same,IC50,RKO,267 nM
same,IC50,Raji,105 nM
same,IC50,SN12CCP,126 nM
same,IC50,SNU-1,509 nM
same,IC50,SiHa,311 nM
"CC[C@H](C(=O)Nc1ncc(C(=O)NO)s1)c1ccc(OC)cc1 [#1a, (S)—N-hydroxy-2-(2-(4-methoxyphenyl)butanamido)thiazole-5-carboxamide]",IC50,A204,54 nM
same,#1/#1a,"A204; ratio of IC50, A204",0.61
same,#1b/#1a,"A204; ratio of IC50, A204",3.15
same,IC50,A427,186 nM
same,#1/#1a,"A427; ratio of IC50, A427",1.66
same,#1b/#1a,"A427; ratio of IC50, A427",7.77
same,IC50,ACHN,78 nM
same,#1/#1a,"ACHN; ratio of IC50, ACHN",2.94
same,#1b/#1a,"ACHN; ratio of IC50, ACHN",9.44
same,IC50,BxPC-3,174 nM
same,#1/#1a,"BxPC-3; ratio of IC50, BxPC-3",1.44
same,#1b/#1a,"BxPC-3; ratio of IC50, BxPC-3",6.3
same,IC50,Cal-27,45 nM
same,#1/#1a,"Cal-27; ratio of IC50, Cal-27",4.78
same,#1b/#1a,"Cal-27; ratio of IC50, Cal-27",10.33
same,IC50,G401,50 nM
same,#1/#1a,"G401; ratio of IC50, G401",1.82
same,#1b/#1a,"G401; ratio of IC50, G401",8.14
same,IC50,H23,47 nM
same,#1/#1a,"H23; ratio of IC50, H23",1.62
same,#1b/#1a,"H23; ratio of IC50, H23",9.02
same,IC50,H460,50 nM
same,#1/#1a,"H460; ratio of IC50, H460",1.58
same,#1b/#1a,"H460; ratio of IC50, H460",7.26
same,IC50,HT-29,43 nM
same,#1/#1a,"HT-29; ratio of IC50, HT-29",3.16
same,#1b/#1a,"HT-29; ratio of IC50, HT-29",9.53
same,IC50,Hs695T,52 nM
same,#1/#1a,"Hs695T; ratio of IC50, Hs695T",7.15
same,#1b/#1a,"Hs695T; ratio of IC50, Hs695T",18.65
same,IC50,Huh-7-luc,68 nM
same,#1/#1a,"Huh-7-luc; ratio of IC50, Huh-7-luc",2.72
same,#1b/#1a,"Huh-7-luc; ratio of IC50, Huh-7-luc",7.25
same,IC50,Ishikawa,28 nM
same,#1/#1a,"Ishikawa; ratio of IC50, Ishikawa",1.71
same,#1b/#1a,"Ishikawa; ratio of IC50, Ishikawa",6.82
same,IC50,LK-2,40 nM
same,#1/#1a,"LK-2; ratio of IC50, LK-2",4.9
same,#1b/#1a,"LK-2; ratio of IC50, LK-2",9.95
same,IC50,MCF7,21 nM
same,#1/#1a,"MCF7; ratio of IC50, MCF7",1.86
same,#1b/#1a,"MCF7; ratio of IC50, MCF7",7.52
same,IC50,MFE296,35 nM
same,#1/#1a,"MFE296; ratio of IC50, MFE296",1.49
same,#1b/#1a,"MFE296; ratio of IC50, MFE296",5.83
same,IC50,MSTO-211H,52 nM
same,#1/#1a,"MSTO-211H; ratio of IC50, MSTO-211H",2.46
same,#1b/#1a,"MSTO-211H; ratio of IC50, MSTO-211H",6.77
same,IC50,MV411,6 nM
same,#1/#1a,"MV411; ratio of IC50, MV411",1.17
same,#1b/#1a,"MV411; ratio of IC50, MV411",3.83
same,IC50,NCI-H209,16 nM
same,#1/#1a,"NCI-H209; ratio of IC50, NCI-H209",6.88
same,#1b/#1a,"NCI-H209; ratio of IC50, NCI-H209",15.69
same,IC50,OAW28,85 nM
same,#1/#1a,"OAW28; ratio of IC50, OAW28",3.39
same,#1b/#1a,"OAW28; ratio of IC50, OAW28",6.61
same,IC50,OCI-Ly3,35 nM
same,#1/#1a,"OCI-Ly3; ratio of IC50, OCI-Ly3",1.86
same,#1b/#1a,"OCI-Ly3; ratio of IC50, OCI-Ly3",4.86
same,IC50,RKO,145 nM
same,#1/#1a,"RKO; ratio of IC50, RKO",1.84
same,#1b/#1a,"RKO; ratio of IC50, RKO",9.37
same,IC50,Raji,36 nM
same,#1/#1a,"Raji; ratio of IC50, Raji",2.92
same,#1b/#1a,"Raji; ratio of IC50, Raji",7.83
same,IC50,SN12CCP,55 nM
same,#1/#1a,"SN12CCP; ratio of IC50, SN12CCP",2.29
same,#1b/#1a,"SN12CCP; ratio of IC50, SN12CCP",7.45
same,#1/#1a,"SNU-1; ratio of IC50, SNU-1",3.86
same,#1b/#1a,"SNU-1; ratio of IC50, SNU-1",10.63
same,IC50,SiHa,307 nM
same,#1/#1a,"SiHa; ratio of IC50, SiHa",1.01
same,#1b/#1a,"SiHa; ratio of IC50, SiHa",8.91
"CC[C@@H](C(=O)Nc1ncc(C(=O)NO)s1)c1ccc(OC)cc1 [#1b, (R)—N-hydroxy-2-(2-(4-methoxyphenyl)butanamido)thiazole-5-carboxamide]",IC50,A204,170 nM
same,IC50,A427,1440 nM
same,IC50,ACHN,736 nM
same,IC50,BxPC-3,1100 nM
same,IC50,Cal-27,465 nM
same,IC50,G401,407 nM
same,IC50,H23,424 nM
same,IC50,H460,363 nM
same,IC50,HT-29,410 nM
same,IC50,Hs695T,970 nM
same,IC50,Huh-7-luc,493 nM
same,IC50,Ishikawa,191 nM
same,IC50,LK-2,398 nM
same,IC50,MCF7,158 nM
same,IC50,MFE296,204 nM
same,IC50,MSTO-211H,352 nM
same,IC50,MV411,23 nM
same,IC50,NCI-H209,251 nM
same,IC50,OAW28,562 nM
same,IC50,OCI-Ly3,170 nM
same,IC50,RKO,1360 nM
same,IC50,Raji,282 nM
same,IC50,SN12CCP,410 nM
same,IC50,SNU-1,1400 nM
same,IC50,SiHa,2740 nM

# Source: patent publication US11420947B2, “(S)-n-hydroxy-2-(2-(4-methoxyphenyl)butanamido)thiazole-5-carboxamide and pharmaceutically acceptable salts thereof” (TRANSLATIONAL DRUG DEVELOPMENT, LLC, priority 2018, dated 2022)
